Test results from patent US20040024024A1, “Aromatic sulfone hydroxamates and their use as protease inhibitors” (priority 2001, published 2004).
pKi: −log10 of the molar value. Structures can show the parent of a compound that is named as a salt.

Key:
Test in all cases: In vitro MMP inhibition, Ki determination (fluorogenic substrate II)
Format in all cases: biochemical
Human recombinant MMP-9 = molecular target: T1, Human recombinant MMP-9 (Homo sapiens, UniProt P14780)
T1 construct: made in house; host or cells: MMP-9-transfected HT1080 cells (spent media)
Protocol: (§1) Several hydroxamates and salts thereof were analyzed in in vitro assays to determine their ability to inhibit the MMP cleavage of peptide substrates. Inhibition (Ki) and IC50 constants were calculated from the assayed hydroxamate-MMP interactions.
(§2) Human recombinant MMP-1, MMP-2, MMP-9, MMP-13, and MMP-14 were used in this assay. All enzymes were prepared in Assignee's laboratories following usual laboratory procedures. Protocols for the preparation and use of these enzymes are available in the scientific literature. See, e.g., Enzyme Nomenclature (Academic Press, San Diego, Calif., 1992) (and the citations therein). See also, Frije et al., J. Biol. Chem., 26(24), 16766-73 (1994).
The MMP-9 proenzyme was purified by gelatin Sepharose chromatography from spent media of MMP-9-transfected HT1080 cells provided by Dr. Howard Welgus of Washington University (St. Louis, Mo.).
(§3) All MMPs were activated using 4-aminophenylmercuric acetate (“APMA”, Sigma Chemical, St. Louis, Mo.) or trypsin. MMP-9 also was activated using human recombinant MMP-3 (purified in Assignee's laboratory following standard cloning and purification techniques).
(§4) Two fluorogenic, methoxycoumarin-containing polypeptide substrates were used in the MMP inhibition assays:
(§5) MCA-ArgProLeuGlyLeuDpaAlaArgGluArgNH2 (II)
(§6) Here, “Dpa” is 3-(2,4-dinitrophenyl)-L-2,3-diaminopropionyl group, and “MCA” is 7-methoxycoumarin-4-yl acetyl. Substrate (I) was purchased from Baychem (Redwood City, Calif.), and substrate II was prepared Assignee's laboratory. Substrate I was used in the IC50 determination assays, while substrate II was used in the Ki determination assays. In the absence of MMP inhibitory activity, either substrate is cleaved at the Gly-Leu peptide bond. This cleavage separates the highly fluorogenic peptide from the 2,4-dinitrophenyl quencher, thus resulting in increase of fluorescent intensity.
(§7) The stock solutions of the assayed hydroxamates (or salts thereof) were prepared in 1% dimethyl sulfoxide (DMSO). These stock solutions were diluted in Buffer A (100 mM Tris-HCl, 100 mM NaCl, 10 mM CaCl2, 0.05% polyoxyethylene 23 lauryl ether, pH 7.5) to obtain solutions with different hydroxamate concentrations, i.e., assay solutions with different concentrations of the assayed MMP inhibitory compound. The experiment controls contained the same amount of Buffer A/DMSO as the assayed sample, but contained no hydroxamate (or salt thereof).
(§8) The assays from which the Ki determinations were made were performed as follows. The assayed hydroxamate samples were incubated in separate wells of untreated white polystyrene plates (Nunc Nalgene International, Rochester, N.Y.), and analyzed on a Tecan SpectraFlour Plus plate reader. The excitation wavelength was 330 nm, and the emission wavelength—420 nm. All samples (assayed hydroxamates and controls) were incubated in separate plate wells at room temperature for 1 hr in the presence of 4 μM of MMP substrate (II). In the absence of MMP inhibitory activity, substrate II was cleaved at the Gly-Leu bond resulting in an increase of relative fluorescence. Inhibition was observed as a reduced rate of this increase in relative fluorescence. The various hydroxamates were analyzed using a single low enzyme concentration with a single substrate concentration fixed at or below the Km. This protocol is a modification of method by Knight et al., FEBS Lett., 296(3), 263-266 (1992). Apparent inhibitory constants were determined by non-linear regression of reaction velocity as a function of inhibitor and enzyme concentration using Morrison's equation, as described by Kuzmic, Anal. Biochem. 286, 45-50 (2000). Modifications were made in the non-linear regression method to allow a common control reaction rate and effective enzyme concentration to be shared between all dose-response relationships on a given assay plate. […]

Human recombinant MMP-13 = molecular target: T2, Human recombinant MMP-13 (Homo sapiens, UniProt P45452)
T2 construct: made in house; host or cells: baculovirus / insect cells
Protocol: as §1, §2
The expressed proenzyme was first purified over a heparin agarose column, and then over a chelating zinc chloride column. The proenzyme was then activated by APMA for use in the assay. Further details on baculovirus expression systems may be found in, for example, Luckow et al., J. Virol., 67, 4566-79 (1993). See also, O'Reilly et al, Baculovirus Expression Vectors: A Laboratory Manual (W. H. Freeman and Co., New York, N.Y., 1992). See also, King et al., The Baculovirus Expression System: A Laboratory Guide (Chapman & Hall, London, England, 1992).
as §3, §4, §5, §6, §7
as §8, with “(2000).” for “(2000). Modifications were made in the non-linear regression method to allow a common control reaction rate and effective enzyme concentration to be shared between all dose-response relationships on a given assay plate.”

Human recombinant MMP-14 = molecular target: T3, Human recombinant MMP-14 (Homo sapiens, UniProt P50281)
T3 construct: The catalytic domain enzyme was expressed in E. coli inclusion bodies, solubilized in urea; made in house
Protocol: as §1, §2
The MMP-14 full length cDNA was provided by Dr. Gregory Goldberg of Washington University (St. Louis, Mo.). The catalytic domain enzyme was expressed in E. coli inclusion bodies, solubilized in urea, purified on a preparative […] reverse phase HPLC column, and then refolded in the presence of zinc acetate and purified for use.
as §3, §4, §5, §6, §7, §8

[1] = substrate (II) 4 μM, 1 hr room temperature, apparent Ki, values in parenthesis

T1 sequence (P14780 107-707 limits assumed): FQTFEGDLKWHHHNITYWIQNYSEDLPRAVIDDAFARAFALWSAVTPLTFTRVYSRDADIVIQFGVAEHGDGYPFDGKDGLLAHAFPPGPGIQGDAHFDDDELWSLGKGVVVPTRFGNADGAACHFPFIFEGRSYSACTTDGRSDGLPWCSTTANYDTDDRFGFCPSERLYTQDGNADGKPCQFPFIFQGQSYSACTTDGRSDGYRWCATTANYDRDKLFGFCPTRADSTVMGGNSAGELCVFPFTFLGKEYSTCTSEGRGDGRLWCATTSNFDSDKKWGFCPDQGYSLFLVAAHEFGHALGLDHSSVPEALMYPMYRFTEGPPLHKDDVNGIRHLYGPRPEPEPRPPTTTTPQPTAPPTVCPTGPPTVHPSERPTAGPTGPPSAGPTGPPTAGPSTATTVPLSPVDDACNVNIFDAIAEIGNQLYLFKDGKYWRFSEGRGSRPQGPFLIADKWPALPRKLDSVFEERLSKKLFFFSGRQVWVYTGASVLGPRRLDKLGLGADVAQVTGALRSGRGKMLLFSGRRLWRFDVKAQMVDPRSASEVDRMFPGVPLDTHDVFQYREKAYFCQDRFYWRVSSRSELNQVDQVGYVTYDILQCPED

SMILES | pKi (Human recombinant MMP-9; value in parenthesis) | pKi (Human recombinant MMP-13; value in parenthesis) | pKi (Human recombinant MMP-14; value in parenthesis) | other results
O=C(NO)C1(S(=O)(=O)c2ccc(OCCCc3cccc(-c4ccc5c(c4)OCCO5)c3)cc2)CCOCC1 [Example 627] | – | – | – | pKi (Human recombinant MMP-9; value in parentheses): 5.50; pKi (Human recombinant MMP-13; value in parentheses): 7.39; pKi (Human recombinant MMP-14; value in parentheses): < 5.00
COCCN1CCC(C(=O)NO)(S(=O)(=O)c2ccc(OCCCc3cccc(-c4ccc(F)cc4)c3)cc2)CC1 [Example 140] | 6.12 | 9.05 | < 5.00 | –
O=C(NO)C1(S(=O)(=O)c2ccc(OCCCc3cccc(-c4ccc([N+](=O)[O-])cc4)c3)cc2)CCOCC1 [Example 626] | – | – | – | pKi (Human recombinant MMP-9; value in parentheses): 5.96; pKi (Human recombinant MMP-13; value in parentheses): 8.12; pKi (Human recombinant MMP-14; value in parentheses): < 5.00
O=C(NO)C1(S(=O)(=O)c2ccc(OCCCc3cccc(-c4ccsc4)c3)cc2)CCOCC1 [Example 632] | – | – | – | pKi (Human recombinant MMP-9; value in parentheses): 6.15; pKi (Human recombinant MMP-13; value in parentheses): 8.18; pKi (Human recombinant MMP-14; value in parentheses): < 5.00
O=C(NO)C1(S(=O)(=O)c2ccc(OCCCc3cccc(-c4ccc(OC(F)(F)F)cc4)c3)cc2)CCOCC1 [Example 147] | 5.10 | 7.62 | < 5.00 | –
O=C(NO)C1(S(=O)(=O)c2ccc(OCCCc3cccc(-c4ccc(F)cc4)c3)cc2)CCOCC1 [Example 39] | – | – | – | pKi (Human recombinant MMP-9; [1]): 5.63; pKi (Human recombinant MMP-13; [1]): 8.52; pKi (Human recombinant MMP-14; [1]): < 5.00
O=C(NO)C1(S(=O)(=O)c2ccc(OCCc3cccc(-c4cccnc4)c3)cc2)CCOCC1 [Example 125] | 6.83 | 9.77 | 5.78 | –
O=C(NO)C1(S(=O)(=O)c2ccc(OCCCn3nnc(-c4ccc(OC(F)(F)F)cc4)n3)cc2)CCN(CC2CC2)CC1 [Example 53] | – | – | – | pKi (Human recombinant MMP-9; [1]): 5.54; pKi (Human recombinant MMP-13; [1]): 9.18; pKi (Human recombinant MMP-14; [1]): < 5.00
CCN1CCC(C(=O)NO)(S(=O)(=O)c2ccc(OCCCc3nc(-c4ccc(OC(F)(F)F)cc4)no3)cc2)CC1 [Example 41, 1-ethyl-N-hydroxy 4-{[4-(3-{3-[4-(trifluoromethoxy)phenyl]-1,2,4-oxadiazol-5-yl}propoxy)phenyl]sulfonyl}piperidine-4-carboxamide Hydrochloride] | – | – | – | pKi (Human recombinant MMP-9; [1]): 5.83; pKi (Human recombinant MMP-13; [1]): 8.98; pKi (Human recombinant MMP-14; [1]): < 5.00
Cc1ccccc1-c1cccc(CCCOc2ccc(S(=O)(=O)C3(C(=O)NO)CCOCC3)cc2)c1 [Example 164] | 5.57 | 8.16 | < 5.00 | –
O=C(CCCc1ccc(S(=O)(=O)C2(C(=O)NO)CCOCC2)cc1)c1cccc(-c2ccccc2)c1 [Example 219] | 7.23 | 9.45 | 5.10 | –
O=C(NO)C1(S(=O)(=O)c2ccc(OCCCc3cccc(-c4ccccc4O)c3)cc2)CCOCC1 [Example 636] | – | – | – | pKi (Human recombinant MMP-9; value in parentheses): 6.12; pKi (Human recombinant MMP-13; value in parentheses): 8.49; pKi (Human recombinant MMP-14; value in parentheses): < 5.00
O=C(NO)C1(S(=O)(=O)c2ccc(OCCOc3cccc(-c4ccccc4)c3)cc2)CCOCC1 [Example 157] | 5.86 | 8.40 | < 5.00 | –
O=C1Nc2ccc(-c3noc(CCCOc4ccc(S(=O)(=O)C5(C(=O)NO)CCN(C6CC6)CC5)cc4)n3)cc21 [Example 142] | 6.51 | 8.87 | < 5.00 | –
